Assay [1] relates to HCT116 colorectal cancer cell lines. Nature of the assay: Tumor cytotoxicity assay (MTT). The format is cell-based. The settings on record: Homo sapiens, HCT-116, HCT116 cells, 72 hours treatment, 0.1 nM to 1000 nM. The procedure: The anticancer efficacy of the compound of the present invention was evaluated using the MTT analysis method in HCT116 colorectal cancer cell lines. The cells were incubated using DMEM medium containing 10% FBS. The cells were distributed in a 96-well plate at a density of 2,500 cells per well, the HCT116 cells were incubated for 24 hours, and then treated with a drug using a serum free DMEM. First, a compound was prepared in 100% dimethyl sulfoxide (DMSO) at a concentration of 0.02 µM to 200 µM, diluted in the culture medium so that the final concentration of DMSO might reach 0.5%, and treated with the drug so that the final concentration of the compound might range from 0.1 nM to 1000 nM. After that, they were further incubated for 72 hours at 37°C and CO2 5% and treated with MTT (Sigma-Aldrich, M2128) to confirm cytotoxicity. Formazan produced from reduction by enzymes in the mitochondria of living cells was measured using Spark® Multimode Microplate Reader TECAN equipment. A cell viability (%) was relatively determined by subtracting a reference 650 nm optical density (O.D.) from 570 nm O.D., in which the 0.5% DMSO-treated control was set as a standard of 100%. […]

The test system of a further assay is HCT-116 cell lines. Put plainly: Cellular NAD measurement assay (NAD/NADH-Glo Assay). The note with it: Homo sapiens; intracellular NAD+/NADH levels, HCT-116 cells, 24 hours treatment, 0.1 nM to 100 nM. It counts as cell-based. The procedure:
With regard to HCT-116 cell lines, the decrease in intracellular NAD+ and NADH levels due to the inhibition of NAMPT enzyme activity by compounds was evaluated using the product of NAD/NADH-Glo™ Assay (Promega, G9072) from Promega. The cells were incubated using DMEM (Gibco, 11995-065) medium containing 10% FBS. The HCT-116 cells were incubated for 24 hours after being distributed at a density of 2,500 cells per well in a 96-well plate, and were treated with a drug using a serum-free DMEM. First, a compound was dissolved in 100% dimethyl sulfoxide (DMSO), and then diluted in the culture medium so that the final concentration of DMSO might reach 0.5%, and treated with the drug. The final concentration range of the compounds was 0.1 nM to 100 nM. After that, they were further incubated for 24 hours at 37°C and CO2 5%. To conduct the NAD/NADH-Glo™ Assay, the culture medium of drug-treated cells was removed, and 50 µL of DPBS was treated per well, and left at room temperature for five minutes. The required amount of NAD/NADH-Glo™ Detection Reagent (Reconstituted Luciferin Detection Reagent 1 mL, Reductase 5 µL, Reductase Substrate 5 µL, NAD Cycling Enzyme 5 µL, NAD Cycling Substrate 25 µL) was prepared according to the manufacturer's manual and treated in an amount of 50 µL per well. After incubating for two minutes at 400 rpm in a plate shaker for cell lysis, the cells were incubated for 30 minutes at room temperature, and luminescence was measured. NAD+/NADH levels were calculated by subtracting the measurement value of the blank well without cells from the measurement value of all wells and taking the 0.5% DMSO-treated control as 100%.

Assay [2] deals with T1, Recombinant NAMPT protein (Homo sapiens, UniProt P43490).
T1 construct: purchased BPS bioscience # 7176-1
Nature of the assay: NAMPT enzyme inhibition assay (BPS bioscience NAMPT Inhibitor Screening Assay Kit, fluorescence). The format is biochemical. The settings on record: 30 min pre-incubation, 2 h at 30°C, compound 1000 nM to 3 nM, n=2. As for the experimental part:
The NAMPT enzyme activity inhibition ability of the compound of the present invention was evaluated using the NAMPT Inhibitor Screening Assay Kit (# 7176-1) from BPS bioscience. Recombinant NAMPT protein was added to each well of a black 96-well plate, and dilution buffer was added to a blank well instead of NAMPT protein. A 5 x concentrated compound solution was added and pre-incubated at room temperature (approximately 22°C) for 30 minutes before the start of the reaction so that the compound and protein might bind before the enzyme reaction. At this time, the concentration of NAMPT protein was adjusted and used according to the enzyme activity of each protein lot within the final concentration range of 4-10 ng/µl, and the test compound was serially diluted at a ratio of 1:3 from 1000 nM to 3 nM, and experiments were conducted with n=2 for about seven concentrations. A 2 x concentrated test buffer containing ATP (final concentration of 20 µM), nicotinamide (final concentration of 20 µM), phosphoribosyl pyrophosphate (PRPP, final concentration of 40 µM), and ethanol (final concentration of 1.5%) was added, and the plate was incubated at 30°C for two hours, after which the fluorescence of a resulting reaction product was measured with excitation of 340 nm and emission of 460 nm. The NAMPT enzyme activity (%) was calculated by subtracting the measurement value of the blank well without NAMPT protein from the measurement value of all wells, and then taking the measurement value of the control well without the compound as 100%.

T1 sequence (P43490 whole entry): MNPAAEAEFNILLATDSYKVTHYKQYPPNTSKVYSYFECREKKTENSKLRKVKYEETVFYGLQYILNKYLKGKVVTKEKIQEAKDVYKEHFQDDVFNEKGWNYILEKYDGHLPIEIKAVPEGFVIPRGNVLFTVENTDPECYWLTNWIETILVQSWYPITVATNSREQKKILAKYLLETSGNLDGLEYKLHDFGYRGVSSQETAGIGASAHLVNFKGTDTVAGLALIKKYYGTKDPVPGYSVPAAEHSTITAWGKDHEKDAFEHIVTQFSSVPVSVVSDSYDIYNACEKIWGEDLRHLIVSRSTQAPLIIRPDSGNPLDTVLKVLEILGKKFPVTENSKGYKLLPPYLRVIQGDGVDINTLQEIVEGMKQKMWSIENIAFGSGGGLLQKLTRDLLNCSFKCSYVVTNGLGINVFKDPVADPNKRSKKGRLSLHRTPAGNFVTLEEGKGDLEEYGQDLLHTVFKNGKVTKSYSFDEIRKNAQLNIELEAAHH

As to `Cn1ccc(CS(=O)(=O)c2ccc(C(=O)NCCCc3cn[nH]c3)cc2C#Cc2ccc(F)cc2)n1` [compound 1, N-(3-(1H-pyrazol-4-yl)propyl)-3-((4-fluorophenyl)ethynyl)-4-(((1-methyl-1H-pyrazol-3-yl)methyl)sulfonyl)benzamide], the CC50 in assay [1] is no more than 30 nM. Also, the IC50 is no more than 10 nM with HCT-116 cell lines and less than 500 nM in assay [2].

`Cn1ccc(CS(=O)(=O)c2ccc(C(=O)NCc3ccn4ccnc4c3)cc2C#Cc2ccc(F)cc2)n1` [compound 2, 3-((4-fluorophenyl)ethynyl)-N-(imidazo[1,2-a]pyridin-7-ylmethyl)-4-(((1-methyl-1H-pyrazol-3-yl)methyl)sulfonyl)benzamide]: the CC50 in assay [1] is no more than 30 nM. The figures for the IC50 (in the assay on HCT-116 cell lines; in assay [2]) were no more than 10 nM and less than 500 nM, respectively.

Compound `O=C(NCCCc1cn[nH]c1)c1ccc(S(=O)(=O)Cc2ccn(-c3ccncc3)n2)c(C#Cc2ccc(F)cc2)c1` [compound 10, N-(3-(1H-pyrazol-4-yl)propyl)-3-((4-fluorophenyl)ethynyl)-4-(((1-(pyridin-4-yl)-1H-pyrazol-3-yl)methyl)sulfonyl)benzamide] yielded a CC50 in assay [1] of no more than 30 nM. For the same compound, the IC50 in the assay with HCT-116 cell lines was no more than 10 nM; in assay [2] it was less than 500 nM.

The compound `Nc1ccc(CS(=O)(=O)c2ccc(C(=O)NCc3ccn4ccnc4c3)cc2C#Cc2ccc(F)cc2)cc1` [compound 148, 4-((4-aminobenzyl)sulfonyl)-3-((4-fluorophenyl)ethynyl)-N-(imidazo[1,2-a]pyridin-7-ylmethyl)benzamide] gave a CC50 in assay [1] of 100 to 1000 nM. The IC50 in assay [2] was less than 500 nM.

`Cn1ccc(CS(=O)(=O)c2ccc(C(=O)NCc3ccn4ccnc4c3)cc2C#Cc2ccc(N)cc2)n1` [compound 228, 3-((4-aminophenyl)ethynyl)-N-(imidazo[1,2-a]pyridin-7-ylmethyl)-4-(((1-methyl-1H-pyrazol-3-yl)methyl)sulfonyl)benzamide] came in with a CC50 in assay [1] of no more than 30 nM. The IC50 is no more than 10 nM in the assay on HCT-116 cell lines and less than 500 nM in assay [2].

For `Cn1ccc(CS(=O)(=O)c2ccc(C(=O)NCc3ccn4ccnc4c3)cc2C#Cc2cccc(N)c2)n1` [compound 229, 3-((3-aminophenyl)ethynyl)-N-(imidazo[1,2-a]pyridin-7-ylmethyl)-4-(((1-methyl-1H-pyrazol-3-yl)methyl)sulfonyl)benzamide], the CC50 in assay [1] was no more than 30 nM. In addition, the IC50 in the assay on HCT-116 cell lines was no more than 10 nM; in assay [2] it was less than 500 nM.

On to `Cn1ccc(CS(=O)(=O)c2ccc(C(=O)NCc3ccn4ccnc4c3)cc2C#Cc2cccc(C(=O)N3CCNCC3)c2)n1` [compound 230, N-(imidazo[1,2-a]pyridin-7-ylmethyl)-4-(((1-methyl-1H-pyrazol-3-yl)methyl)sulfonyl)-3-((3-(piperazine-1-carbonyl)phenyl)ethynyl)benzamide], for which the CC50 in assay [1] lay within 100 to 1000 nM. Also, the IC50 with HCT-116 cell lines is 10 to 1000 nM; in assay [2], less than 500 nM.

As for `Cn1ccc(CS(=O)(=O)c2ccc(C(=O)NCc3ccn4ccnc4c3)cc2C#Cc2cccc(CN)c2)n1` [compound 232, 3-((3-(aminomethyl)phenyl)ethynyl)-N-(imidazo[1,2-a]pyridin-7-ylmethyl)-4-(((1-methyl-1H-pyrazol-3-yl)methyl)sulfonyl)benzamide], the CC50 in assay [1] was no more than 30 nM. In addition, in assay [2], the IC50 was less than 500 nM.

As for `O=C(NCc1ccn2ccnc2c1)c1ccc(S(=O)(=O)Cc2cc[nH]n2)c(C#Cc2ccc(F)cc2)c1` [compound 234, 4-(((1H-pyrazol-3-yl)methyl)sulfonyl)-3-((4-fluorophenyl)ethynyl)-N-(imidazo[1,2-a]pyridin-7-ylmethyl)benzamide], the CC50 in assay [1] is no more than 30 nM. Further, in assay [2], the IC50 was less than 500 nM.

In assay [1], `Cn1ccc(CS(=O)(=O)c2ccc(C(=O)NCc3cnc4nccn4c3)cc2C#Cc2ccc(F)cc2)n1` [compound 238, 3-((4-fluorophenyl)ethynyl)-N-(imidazo[1,2-a]pyrimidin-6-ylmethyl)-4-(((1-methyl-1H-pyrazol-3-yl)methyl)sulfonyl)benzamide] had a CC50 of 100 to 1000 nM. The IC50 in assay [2] is less than 500 nM.

`Cn1ccc(CS(=O)(=O)c2ccc(C(=O)NCc3ccn4ccnc4c3)cc2C#Cc2ccc(N)c(F)c2)n1` [compound 241, 3-((4-amino-3-fluorophenyl)ethynyl)-N-(imidazo[1,2-a]pyridin-7-ylmethyl)-4-(((1-methyl-1H-pyrazol-3-yl)methyl)sulfonyl)benzamide] gave a CC50 in assay [1] of no more than 30 nM. Moreover, the IC50 in assay [2] was less than 500 nM.
